Test results as given in PubChem BioAssay AID1963850 (Molecular Pharmacology Branch, DTP, NCI, 2024).
pIC50: −log10 of the molar value.

Tested on: 192522-019-R-J2-PDC complex tumor spheroid viability
Test: Anticancer human tumor 192522-019-R-J2-PDC patient-derived colon adenocarcinoma cell line growth inhibition [POLQ]
Conditions: for pIC50: curve of first compound; for viability, T/C: stronger effect = lower value
Outline: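 Patient-derived tumour cells were co-cultured with HUVEC and mesenchymal stem cells as multicellular spheroids at 37 °C. They were treated with POLQ inhibitors (novobiocin, ART-558, RP6685) alone or combined with other agents. Top concentrations were at or near clinical Cmax (otherwise 10 microM; SN-38 at 1 microM), decreasing in half-log steps.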

[1] = second compound 0.0316 µM, first compound 0.00316 µM
[2] = second compound 0.0316 µM, first compound 0.01 µM
[3] = second compound 0.0316 µM, first compound 0.0316 µM
[4] = second compound 0.0316 µM, first compound 0.1 µM
[5] = second compound 0.0316 µM, first compound 0.316 µM
[6] = second compound 0.0316 µM, first compound 1 µM
[7] = second compound 0.1 µM, first compound 0.00316 µM
[8] = second compound 0.1 µM, first compound 0.01 µM
[9] = second compound 0.1 µM, first compound 0.0316 µM
[10] = second compound 0.1 µM, first compound 0.1 µM
[11] = second compound 0.1 µM, first compound 0.316 µM
[12] = second compound 0.1 µM, first compound 1 µM
[13] = second compound 0.316 µM, first compound 0.00316 µM
[14] = second compound 0.316 µM, first compound 0.01 µM
[15] = second compound 0.316 µM, first compound 0.0316 µM
[16] = second compound 0.316 µM, first compound 0.1 µM
[17] = second compound 0.316 µM, first compound 0.316 µM
[18] = second compound 0.316 µM, first compound 1 µM
[19] = second compound 1 µM, first compound 0.00316 µM
[20] = second compound 1 µM, first compound 0.01 µM
[21] = second compound 1 µM, first compound 0.0316 µM
[22] = second compound 1 µM, first compound 0.1 µM
[23] = second compound 1 µM, first compound 0.316 µM
[24] = second compound 1 µM, first compound 1 µM
[25] = second compound 3.16 µM, first compound 0.00316 µM
[26] = second compound 3.16 µM, first compound 0.01 µM
[27] = second compound 3.16 µM, first compound 0.0316 µM
[28] = second compound 3.16 µM, first compound 0.1 µM
[29] = second compound 3.16 µM, first compound 0.316 µM
[30] = second compound 3.16 µM, first compound 1 µM
[31] = second compound 10 µM, first compound 0.00316 µM
[32] = second compound 10 µM, first compound 0.01 µM
[33] = second compound 10 µM, first compound 0.0316 µM
[34] = second compound 10 µM, first compound 0.1 µM
[35] = second compound 10 µM, first compound 0.316 µM
[36] = second compound 10 µM, first compound 1 µM
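Further: spheroids exposed to drugs for seven days before reading.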
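Wherever viability, T/C is given: 100% = DMSO vehicle control viability in luminescence.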

COc1cccc(OCCCN)c1-c1cc(Nc2cnc(C#N)cn2)n[nH]1 + Nc1ccc(C#CCN(C(=O)Cc2ncc(C(F)(F)F)cc2C(F)(F)F)c2ccc(F)cc2)nn1
pIC50 (second compound 0.0316 µM): 7.57
pIC50 (second compound 0.1 µM): 7.59
pIC50 (second compound 0.316 µM): 7.57
pIC50 (second compound 1 µM): 7.55
pIC50 (second compound 3.16 µM): 7.54
pIC50 (second compound 10 µM): 7.57
viability, T/C [1]: 102%
viability, T/C [2]: 86%
viability, T/C [3]: 44.1%
viability, T/C [4]: 37.4%
viability, T/C [5]: 40.7%
viability, T/C [6]: 35.3%
viability, T/C [7]: 102%
viability, T/C [8]: 78.4%
viability, T/C [9]: 43.5%
viability, T/C [10]: 39.4%
viability, T/C [11]: 35%
viability, T/C [12]: 36.3%
viability, T/C [13]: 102%
viability, T/C [14]: 81.4%
viability, T/C [15]: 45.2%
viability, T/C [16]: 38.3%
viability, T/C [17]: 37.5%
viability, T/C [18]: 39.2%
viability, T/C [19]: 96.8%
viability, T/C [20]: 87.5%
viability, T/C [21]: 45.7%
viability, T/C [22]: 40.6%
viability, T/C [23]: 40.1%
viability, T/C [24]: 40.5%
viability, T/C [25]: 101%
viability, T/C [26]: 85.2%
viability, T/C [27]: 47.2%
viability, T/C [28]: 44.6%
viability, T/C [29]: 45.3%
viability, T/C [30]: 40.9%
viability, T/C [31]: 99.5%
viability, T/C [32]: 66.7%
viability, T/C [33]: 46.7%
viability, T/C [34]: 43.1%
viability, T/C [35]: 52.2%
viability, T/C [36]: 46.8%

Cn1ncnc1[C@H]1c2n[nH]c(=O)c3cc(F)cc(c23)N[C@@H]1c1ccc(F)cc1 + Nc1ccc(C#CCN(C(=O)Cc2ncc(C(F)(F)F)cc2C(F)(F)F)c2ccc(F)cc2)nn1
pIC50 (second compound 0.0316 µM): < 7.00
pIC50 (second compound 0.1 µM): < 7.00
pIC50 (second compound 0.316 µM): < 7.00
pIC50 (second compound 1 µM): < 7.00
pIC50 (second compound 3.16 µM): < 7.00
pIC50 (second compound 10 µM): < 7.00
viability, T/C (second compound 0.0316 µM, first compound 0.000316 µM): 101%
viability, T/C (second compound 0.0316 µM, first compound 0.001 µM): 108%
viability, T/C [1]: 101%
viability, T/C [2]: 104%
viability, T/C [3]: 99.4%
viability, T/C [4]: 98.9%
viability, T/C (second compound 0.1 µM, first compound 0.000316 µM): 108%
viability, T/C (second compound 0.1 µM, first compound 0.001 µM): 100%
viability, T/C [7]: 107%
viability, T/C [8]: 110%
viability, T/C [9]: 113%
viability, T/C [10]: 91.4%
viability, T/C (second compound 0.316 µM, first compound 0.000316 µM): 107%
viability, T/C (second compound 0.316 µM, first compound 0.001 µM): 95.4%
viability, T/C [13]: 97.9%
viability, T/C [14]: 108%
viability, T/C [15]: 111%
viability, T/C [16]: 102%
viability, T/C (second compound 1 µM, first compound 0.000316 µM): 119%
viability, T/C (second compound 1 µM, first compound 0.001 µM): 109%
viability, T/C [19]: 102%
viability, T/C [20]: 99.9%
viability, T/C [21]: 105%
viability, T/C [22]: 114%
viability, T/C (second compound 3.16 µM, first compound 0.000316 µM): 102%
viability, T/C (second compound 3.16 µM, first compound 0.001 µM): 107%
viability, T/C [25]: 109%
viability, T/C [26]: 106%
viability, T/C [27]: 105%
viability, T/C [28]: 104%
viability, T/C (second compound 10 µM, first compound 0.000316 µM): 108%
viability, T/C (second compound 10 µM, first compound 0.001 µM): 114%
viability, T/C [31]: 109%
viability, T/C [32]: 99.2%
viability, T/C [33]: 99.2%
viability, T/C [34]: 107%

O=C(c1cc(Cc2n[nH]c(=O)c3ccccc23)ccc1F)N1CCN(C(=O)C2CC2)CC1 + Nc1ccc(C#CCN(C(=O)Cc2ncc(C(F)(F)F)cc2C(F)(F)F)c2ccc(F)cc2)nn1
pIC50 (second compound 0.0316 µM): < 5.00
pIC50 (second compound 0.1 µM): < 5.00
pIC50 (second compound 0.316 µM): < 5.00
pIC50 (second compound 1 µM): < 5.00
pIC50 (second compound 3.16 µM): < 5.00
pIC50 (second compound 10 µM): < 5.00
viability, T/C [3]: 105%
viability, T/C [4]: 116%
viability, T/C [5]: 106%
viability, T/C [6]: 105%
viability, T/C (second compound 0.0316 µM, first compound 3.16 µM): 111%
viability, T/C (second compound 0.0316 µM, first compound 10 µM): 104%
viability, T/C [9]: 108%
viability, T/C [10]: 104%
viability, T/C [11]: 102%
viability, T/C [12]: 102%
viability, T/C (second compound 0.1 µM, first compound 3.16 µM): 110%
viability, T/C (second compound 0.1 µM, first compound 10 µM): 105%
viability, T/C [15]: 117%
viability, T/C [16]: 105%
viability, T/C [17]: 101%
viability, T/C [18]: 112%
viability, T/C (second compound 0.316 µM, first compound 3.16 µM): 111%
viability, T/C (second compound 0.316 µM, first compound 10 µM): 95.6%
viability, T/C [21]: 110%
viability, T/C [22]: 102%
viability, T/C [23]: 97.3%
viability, T/C [24]: 104%
viability, T/C (second compound 1 µM, first compound 3.16 µM): 114%
viability, T/C (second compound 1 µM, first compound 10 µM): 106%
viability, T/C [27]: 116%
viability, T/C [28]: 104%
viability, T/C [29]: 103%
viability, T/C [30]: 105%
viability, T/C (second compound 3.16 µM, first compound 3.16 µM): 106%
viability, T/C (second compound 3.16 µM, first compound 10 µM): 113%
viability, T/C [33]: 107%
viability, T/C [34]: 111%
viability, T/C [35]: 110%
viability, T/C [36]: 103%
viability, T/C (second compound 10 µM, first compound 3.16 µM): 110%
viability, T/C (second compound 10 µM, first compound 10 µM): 110%
